Tested on: human maximum recommended daily dose, FDA database
Experiment: DSSTox (FDAMDD) FDA Maximum (Recommended) Daily Dose Database
Details: stronger effect = lower value
In short: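 MRDD values come from clinical trials with daily oral dosing, usually for 3–12 months, for the average adult, in mg/day converted to mg/kg-bw/day assuming 60 kg. Antineoplastic mg/m2 doses are divided by 37. Activity score maps log10(1/MRDD mmol) onto 1–100.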

[1] = TherapeuticCategory: cardiotonic
[2] = TherapeuticCategory: antineoplastic
[3] = TherapeuticCategory: anticonvulsant
[4] = TherapeuticCategory: hypnotic, sedative
[5] = TherapeuticCategory: antibacterial
[6] = TherapeuticCategory: antidepressant
[7] = TherapeuticCategory: narcotic analgesic
[8] = TherapeuticCategory: antipsychotic

CC(=O)O[C@H]1C[C@H](O[C@H]2[C@@H](O)C[C@H](O[C@H]3[C@@H](O)C[C@H](OC4CC[C@@]5(C)C(CC[C@@H]6[C@@H]5CC[C@]5(C)[C@@H](C7=CC(=O)OC7)[C@@H](O)C[C@]65O)C4)O[C@@H]3C)O[C@@H]2C)O[C@H](C)[C@H]1O[C@@H]1O[C@H](CO)[C@@H](O)[C@H](O)[C@H]1O (stereo partly drawn)
maximum recommended daily dose (mmol/kg-bw/day) [1]: 3.38e-05

C[C@@H]1C[C@@]2(C)[C@@H](CC[C@@H]3[C@@H]2CC[C@]2(C)[C@@H](O)CC[C@@H]32)CC1=O
maximum recommended daily dose (mmol/kg-bw/day) [2]: 0.00549

NC[C@H](O)c1ccc(O)c(O)c1
maximum recommended daily dose (mmol/kg-bw/day) (TherapeuticCategory: adrenergic, antihypotensive): 0.000394

CCC1(C)CC(=O)NC1=O (stereo not drawn)
maximum recommended daily dose (mmol/kg-bw/day) [3]: 0.118

CCC1(c2ccc(N)cc2)CCC(=O)NC1=O (stereo not drawn)
maximum recommended daily dose (mmol/kg-bw/day) [3]: 0.0719

CNCCc1ccccn1
maximum recommended daily dose (mmol/kg-bw/day) (TherapeuticCategory: vasodilator): 0.00587

CCCCC1C(=O)N(c2ccccc2)N(c2ccccc2)C1=O
maximum recommended daily dose (mmol/kg-bw/day) (TherapeuticCategory: anti inflammatory): 0.0324

CC(=O)CC(c1ccc([N+](=O)[O-])cc1)c1c(O)c2ccccc2oc1=O (stereo not drawn)
maximum recommended daily dose (mmol/kg-bw/day) (TherapeuticCategory: anticoagulant): 0.000566

CC(Oc1c(Cl)cccc1Cl)C1=NCCN1 (stereo not drawn)
maximum recommended daily dose (mmol/kg-bw/day) (TherapeuticCategory: antihypertensive): 0.000154

C[C@H]1CCC[C@H](O)CCCCCc2cc(O)cc(O)c2C(=O)O1
maximum recommended daily dose (mmol/kg-bw/day) (TherapeuticCategory: anabolic): 1.55e-06

Cc1ccccc1-n1c(C)nc2ccccc2c1=O
maximum recommended daily dose (mmol/kg-bw/day) [4]: 0.02

NCC[C@H](O)C(=O)N[C@@H]1C[C@H](N)[C@@H](O[C@H]2O[C@H](CN)[C@@H](O)[C@H](O)[C@H]2O)[C@H](O)[C@H]1O[C@H]1O[C@H](CO)[C@@H](O)[C@H](N)[C@H]1O
maximum recommended daily dose (mmol/kg-bw/day) [5]: 0.0256

c1ccc(C2(N3CCCCC3)CCCCC2)cc1
maximum recommended daily dose (mmol/kg-bw/day) (TherapeuticCategory: analgesic, anesthetic): 0.000822

CCN(CC)C(=S)SSC(=S)N(CC)CC
maximum recommended daily dose (mmol/kg-bw/day) (TherapeuticCategory: alcohol deterrent): 0.0281

CC(C)[C@@H](C)/C=C/[C@@H](C)[C@H]1CC[C@H]2/C(=C/C=C3\C[C@@H](O)CC[C@@H]3C)CCC[C@]12C
maximum recommended daily dose (mmol/kg-bw/day) (TherapeuticCategory: regulator): 0.000105

CN[C@@H]1[C@H](O[C@H]2[C@H](O[C@H]3[C@H](O)[C@@H](O)[C@H](N=C(N)N)[C@@H](O)[C@@H]3N=C(N)N)O[C@@H](C)[C@]2(O)C=O)O[C@@H](CO)[C@H](O)[C@H]1O
maximum recommended daily dose (mmol/kg-bw/day) [5]: 0.0344

C=C1/C(=C\C=C2/CCC[C@]3(C)[C@@H]([C@H](C)CCCC(C)(C)O)CC[C@@H]23)C[C@@H](O)C[C@@H]1O
maximum recommended daily dose (mmol/kg-bw/day) (TherapeuticCategory: calcium regulator): 1.2e-07

CCN(CC)C(=S)S
maximum recommended daily dose (mmol/kg-bw/day) (TherapeuticCategory: immunomodulator, chelating agent): 0.0584

CC(C)CCON=O
maximum recommended daily dose (mmol/kg-bw/day) (TherapeuticCategory: none): 0.0427

NC(CO)C(=O)NNCc1ccc(O)c(O)c1O (stereo not drawn)
maximum recommended daily dose (mmol/kg-bw/day) (TherapeuticCategory: antiparkinsonian): 0.0129

COC(=O)c1ccc(O)cc1
maximum recommended daily dose (mmol/kg-bw/day) (TherapeuticCategory: none): 0.0657

Cc1ncc(C[n+]2csc(CCO)c2C)c(N)n1
maximum recommended daily dose (mmol/kg-bw/day) (TherapeuticCategory: enzyme cofactor vitamin): 0.00555

CC(C)(O)CC(C)(O)c1ccc(Cl)cc1 (stereo not drawn)
maximum recommended daily dose (mmol/kg-bw/day) [6]: 0.0437

CC(C)(C)NC[C@H](O)COc1nsnc1N1CCOCC1
maximum recommended daily dose (mmol/kg-bw/day) (TherapeuticCategory: antihypertensive, antianginal, antiarrhythmic, antiglaucomic): 0.00316

CN(C)[C@@H]1C(=O)C(C(=O)NCN2CCCC2)=C(O)[C@@]2(O)C(=O)C3=C(O)c4c(O)cccc4[C@@](C)(O)C3C[C@@H]12 (stereo partly drawn)
maximum recommended daily dose (mmol/kg-bw/day) [5]: 0.0111

CN[C@@H](C)[C@@H](O)c1ccccc1
maximum recommended daily dose (mmol/kg-bw/day) (TherapeuticCategory: l-form as bronchodilator, d-form as decongestant): 0.0242

CN1[C@@H]2CCC[C@H]1CC(NC(=O)c1nn(C)c3ccccc13)C2 (stereo partly drawn)
maximum recommended daily dose (mmol/kg-bw/day) (TherapeuticCategory: antiemetic): 3.2e-05

CN1CCN2c3ccccc3Cc3ccccc3C2C1 (stereo not drawn)
maximum recommended daily dose (mmol/kg-bw/day) [6]: 0.00567

BrC(Br)Br
maximum recommended daily dose (mmol/kg-bw/day) (TherapeuticCategory: sedative, hypnotic, antitussive): 0.0989

C[C@]12CC[C@@H]3c4ccc(OC(=O)c5ccccc5)cc4CC[C@H]3[C@@H]1CC[C@@H]2O
maximum recommended daily dose (mmol/kg-bw/day) (TherapeuticCategory: estrogen): 0.00133

Cc1ccccc1-n1c(CF)nc2ccc(N)cc2c1=O
maximum recommended daily dose (mmol/kg-bw/day) (TherapeuticCategory: skeletal muscle relaxant): 0.00353

Cn1c(=O)c2c(ncn2CCCNCC(O)c2cc(O)cc(O)c2)n(C)c1=O (stereo not drawn)
maximum recommended daily dose (mmol/kg-bw/day) (TherapeuticCategory: bronchodilator): 0.00257

CC[C@@H](CO)NC(=O)[C@@H]1C=C2c3cccc4c3c(cn4C)C[C@H]2N(C)C1
maximum recommended daily dose (mmol/kg-bw/day) (TherapeuticCategory: antimigraine): 0.000283

CC(=O)Oc1ccc(C2(c3ccc(OC(C)=O)cc3)C(=O)Nc3ccccc32)cc1
maximum recommended daily dose (mmol/kg-bw/day) (TherapeuticCategory: cathartic): 0.00208

CCOC(C)=O
maximum recommended daily dose (mmol/kg-bw/day) (TherapeuticCategory: none): 0.284

Cc1ccsc1C(=CCCN1CCC[C@@H](C(=O)O)C1)c1sccc1C
maximum recommended daily dose (mmol/kg-bw/day) [3]: 0.00285

CC(C)c1ccc2oc3nc(N)c(C(=O)O)cc3c(=O)c2c1
maximum recommended daily dose (mmol/kg-bw/day) (TherapeuticCategory: antiallergic, antiasthmatic): 0.00838

CCOC(=O)c1cncn1C(C)c1ccccc1 (stereo not drawn)
maximum recommended daily dose (mmol/kg-bw/day) (TherapeuticCategory: anticholinergic): 0.00246

CCCCNC(=O)OCC(C)(CCC)COC(N)=O (stereo not drawn)
maximum recommended daily dose (mmol/kg-bw/day) (TherapeuticCategory: anxiolytic): 0.182

CN(C)CCCC1(c2ccc(F)cc2)OCc2cc(C#N)ccc21 (stereo not drawn)
maximum recommended daily dose (mmol/kg-bw/day) [6]: 0.00308

COc1cc(OC)c(C(=O)CCCN2CCCC2)c(OC)c1
maximum recommended daily dose (mmol/kg-bw/day) (TherapeuticCategory: peripheral vasodilator): 0.0325

O=C(O)CCCC[C@@H]1SC[C@@H]2NC(=O)N[C@@H]21
maximum recommended daily dose (mmol/kg-bw/day) (TherapeuticCategory: none): 1.36e-05

CN1CC[C@]23CCCC[C@H]2[C@H]1Cc1ccc(O)cc13
maximum recommended daily dose (mmol/kg-bw/day) [7]: 0.000583

CS(=O)(=O)OCCCCOS(C)(=O)=O
maximum recommended daily dose (mmol/kg-bw/day) [2]: 0.00054

CO/N=C(/C(=O)N[C@@H]1C(=O)N2C(C(=O)O)=C(COC(N)=O)CS[C@H]12)c1ccco1
maximum recommended daily dose (mmol/kg-bw/day) [5]: 0.0394

COC(=O)C1=C(C)NC(C)=C(C(=O)OC(C)C)C1c1cccc2nonc12 (stereo not drawn)
maximum recommended daily dose (mmol/kg-bw/day) (TherapeuticCategory: antihypertensive, antianginal): 0.00045

CC(=O)O[C@H]1C[C@H](O[C@H]2[C@@H](O)C[C@H](O[C@H]3[C@@H](O)C[C@H](OC4CC[C@@]5(C)[C@H](CC[C@@H]6[C@@H]5CC[C@]5(C)[C@@H](C7=CC(=O)OC7)CC[C@]65O)C4)O[C@@H]3C)O[C@@H]2C)O[C@H](C)[C@H]1O[C@@H]1O[C@H](CO)[C@@H](O)[C@H](O)[C@H]1O (stereo partly drawn)
maximum recommended daily dose (mmol/kg-bw/day) [1]: 3.44e-05

CO/N=C(/C(=O)N[C@@H]1C(=O)N2C(C(=O)OC(C)OC(C)=O)=C(COC(N)=O)CS[C@H]12)c1ccco1 (stereo partly drawn)
maximum recommended daily dose (mmol/kg-bw/day) [5]: 0.0327

CCN(C(C)=O)c1cccc(-c2ccnc3c(C#N)cnn23)c1
maximum recommended daily dose (mmol/kg-bw/day) [4]: 0.00164

CC[C@]1(O)CC[C@H]2[C@@H]3CCC4=CCCC[C@@H]4[C@H]3CC[C@@]21C
maximum recommended daily dose (mmol/kg-bw/day) (TherapeuticCategory: anabolic): 0.000231

CCOC(=O)C1(c2ccccc2)CCN(CCc2ccc(N)cc2)CC1
maximum recommended daily dose (mmol/kg-bw/day) [7]: 0.00945

CCN(CC)CCOC(=O)C(O)(c1ccccc1)c1ccccc1
maximum recommended daily dose (mmol/kg-bw/day) (TherapeuticCategory: antidepressant, anticholinergic): 0.000458

COc1cc(Cc2cnc(N)nc2N)cc(OC)c1OC
maximum recommended daily dose (mmol/kg-bw/day) [5]: 0.0184

O=c1[nH]c2ccccc2n1C1CCN(CCCC(c2ccc(F)cc2)c2ccc(F)cc2)CC1
maximum recommended daily dose (mmol/kg-bw/day) [8]: 0.000362

CCN(C)C(=O)Oc1cccc([C@H](C)N(C)C)c1
maximum recommended daily dose (mmol/kg-bw/day) (TherapeuticCategory: cholinesterase inhibitor): 0.000799

C#CC(C)(O)CC (stereo not drawn)
maximum recommended daily dose (mmol/kg-bw/day) [4]: 0.17

OCC(Br)(Br)Br
maximum recommended daily dose (mmol/kg-bw/day) (TherapeuticCategory: anesthetic): 0.354

COC1=C(C(=O)O)N2C(=O)[C@@H](NC(=O)[C@H](N)C3=CCC=CC3)[C@H]2SC1
maximum recommended daily dose (mmol/kg-bw/day) [5]: 0.0911

CCn1nc(C)c2c1C(c1ccccc1)=NCC(=O)N2
maximum recommended daily dose (mmol/kg-bw/day) (TherapeuticCategory: antianxiolytic): 0.00496

N[C@@H](Cc1ccc(O)cc1)C(=O)O
maximum recommended daily dose (mmol/kg-bw/day) (TherapeuticCategory: none): 0.552

CN1CCN(C2=Nc3cc(Cl)ccc3Nc3ccccc32)CC1
maximum recommended daily dose (mmol/kg-bw/day) [8]: 0.0459

CC1=C(/C=C/C(C)=C/C=C/C(C)=C/C=C/C=C(C)/C=C/C=C(C)/C=C/C2=C(C)C(=O)CCC2(C)C)C(C)(C)CCC1=O
maximum recommended daily dose (mmol/kg-bw/day) (TherapeuticCategory: antioxidant): 0.0443

CC(=O)O[C@]1(C(C)=O)CC[C@H]2[C@@H]3C=C(Cl)C4=CC(=O)[C@@H]5C[C@@H]5[C@]4(C)[C@H]3CC[C@@]21C
maximum recommended daily dose (mmol/kg-bw/day) (TherapeuticCategory: antiandrogen): 0.012

— PubChem BioAssay AID1195 (EPA DSSTox, 2008)
